Assay results as given in ChEMBL document CHEMBL1135600, “Novel tricyclic-alpha-alkyloxyphenylpropionic acids: dual PPARalpha/gamma agonists with hypolipidemic and antidiabetic activity” (J Med Chem, 2002).
“And” between values parts separate entries of the source, which are not always exact repeats. Equal values may be shown once. The source made the active and inactive calls. The calls are words filed in the database; no cut-off is given here.

Tests used:
[1] = biological target: T1, Peroxisome proliferator-activated receptor alpha (Homo sapiens, UniProt Q07869); assay: In vitro transactivation using receptor transactivation assay against hPPAR alpha; type: functional
T1 sequence (Q07869 whole entry): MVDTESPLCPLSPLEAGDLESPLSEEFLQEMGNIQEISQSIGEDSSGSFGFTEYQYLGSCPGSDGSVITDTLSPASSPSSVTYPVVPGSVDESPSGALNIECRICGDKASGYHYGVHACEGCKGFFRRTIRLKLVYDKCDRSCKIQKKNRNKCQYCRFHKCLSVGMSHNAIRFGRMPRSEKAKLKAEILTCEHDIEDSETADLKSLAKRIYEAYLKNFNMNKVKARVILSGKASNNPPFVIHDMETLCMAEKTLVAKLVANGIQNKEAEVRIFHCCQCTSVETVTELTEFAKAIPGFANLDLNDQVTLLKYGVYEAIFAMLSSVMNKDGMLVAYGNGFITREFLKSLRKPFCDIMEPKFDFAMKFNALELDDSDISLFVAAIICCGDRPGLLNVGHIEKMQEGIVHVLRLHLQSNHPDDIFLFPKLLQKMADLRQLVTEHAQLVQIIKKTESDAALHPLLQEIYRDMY

[2] = biological target: T2, Peroxisome proliferator-activated receptor delta (Homo sapiens, UniProt Q03181); assay: In vitro transcriptional activation of hPPAR delta; type: functional
T2 sequence (Q03181 whole entry): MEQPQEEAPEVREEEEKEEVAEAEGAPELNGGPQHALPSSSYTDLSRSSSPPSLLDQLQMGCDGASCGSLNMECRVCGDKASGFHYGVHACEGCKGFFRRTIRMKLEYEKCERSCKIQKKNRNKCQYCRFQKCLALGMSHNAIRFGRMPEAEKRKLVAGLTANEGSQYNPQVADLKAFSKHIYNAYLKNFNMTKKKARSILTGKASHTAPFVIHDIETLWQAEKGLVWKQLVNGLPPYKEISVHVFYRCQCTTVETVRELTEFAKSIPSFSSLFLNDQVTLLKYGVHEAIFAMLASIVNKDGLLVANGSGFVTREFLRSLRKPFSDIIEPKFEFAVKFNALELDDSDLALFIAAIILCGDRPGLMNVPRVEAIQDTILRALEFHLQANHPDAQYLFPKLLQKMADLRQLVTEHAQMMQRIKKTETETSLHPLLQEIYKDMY

[3] = Clearance after oral administration in rat; type: ADME, organism-based; details: in vivo
[4] = species: Mus musculus; assay: Minimum concentration which produces the desired nonfasting blood glucose levels after 7 days in 50% of the treated mice.; type: functional; details: 168 h
[5] = Maximum plasma concentration after oral administration at a dose 2.2 mg/kg in rat; type: ADME, organism-based; parameters: dose 2.2 mg/kg, route oral
[6] = Oral bioavailability in rat; type: ADME, organism-based; details: in vivo
[7] = species: Mus musculus; assay: Minimum concentration which produces the desired nonfasting triglyceride levels after 7 days in 50% of the treated male db/db mice.; type: functional; details: 168 h
[8] = biological target: T3, Peroxisome proliferator-activated receptor gamma (Homo sapiens, UniProt P37231)
T3 sequence (P37231 whole entry): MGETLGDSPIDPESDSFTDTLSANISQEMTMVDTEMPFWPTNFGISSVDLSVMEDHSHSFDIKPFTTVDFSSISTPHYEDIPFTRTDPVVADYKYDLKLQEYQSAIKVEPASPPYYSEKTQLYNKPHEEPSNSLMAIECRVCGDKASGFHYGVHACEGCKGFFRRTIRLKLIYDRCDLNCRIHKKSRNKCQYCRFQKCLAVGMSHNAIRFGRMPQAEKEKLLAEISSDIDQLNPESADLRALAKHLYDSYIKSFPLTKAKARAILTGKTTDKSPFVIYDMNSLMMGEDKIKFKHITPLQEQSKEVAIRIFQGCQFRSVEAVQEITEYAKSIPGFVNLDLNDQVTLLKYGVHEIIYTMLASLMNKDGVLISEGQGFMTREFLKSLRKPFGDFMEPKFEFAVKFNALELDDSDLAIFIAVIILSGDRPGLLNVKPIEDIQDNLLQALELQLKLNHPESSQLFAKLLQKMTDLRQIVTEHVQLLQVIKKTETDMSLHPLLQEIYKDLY
Description: In vitro transactivation using receptor transactivation assay against hPPAR gamma

[9] = Volume of distribution during steady state in rat; type: ADME, organism-based; details: in vivo, read-out: Vss
[10] = species: Mus musculus; assay: Maximum achieved blood glucose reduction relative to vehicle treated control group; type: functional
[11] = species: Mus musculus; assay: Maximum achieved insulin reduction relative to vehicle treated control group; NE is Not Effective.; type: functional, organism-based
[12] = species: Mus musculus; assay: Maximum achieved triglycerides reduction relative to vehicle treated control group; type: functional
[13] = Area under blood glucose time curve after OGTT on the 9th day of treatment; type: ADME, tissue-based
[14] = species: Mus musculus; assay: Maximum achieved insulin reduction relative to vehicle treated control group; type: functional
[15] = species: Mus musculus; assay: Effective dose which produces the desired nonfasting triglyceride levels after 7 days in 50% of the treated male db/db mice.; type: functional; details: 168 h
[16] = species: Rattus norvegicus; assay: Maximum achieved Total cholesterol reduction relative to vehicle treated control group; type: functional
[17] = Oral half life was reported; type: ADME, organism-based; details: in vivo
[18] = Clearance after oral administration; type: ADME, organism-based; details: in vivo
[19] = species: Mus musculus; assay: Effective dose which produces the desired nonfasting insuline levels after 7 days in 50% of the treated male db/db mice.; type: functional; details: 168 h
[20] = Area under plasma concentration time curve after oral administration at a dose 2.2 mg/kg; type: ADME, organism-based; parameters: dose 2.2 mg/kg, route oral; details: plasma, read-out: AUC (converted)
[21] = species: Rattus norvegicus; assay: Effective dose which produces the desired total cholesterol levels imale Sprgue-Dawley rats.; type: functional
[22] = Maximum plasma concentration after oral administration at a dose 2.2 mg/kg; type: ADME, organism-based; parameters: dose 2.2 mg/kg, route oral
[23] = species: Rattus norvegicus; assay: Effective dose which produces the desired nonfasting triglyceride levels in high cholesterol fed male Sprgue-Dawley rats.; type: functional
[24] = species: Mus musculus; assay: Effective dose which produces the desired nonfasting blood glucose levels after 7 days in 50% of the treated mice.; type: functional; details: 168 h
[25] = in vivo
[26] = species: Rattus norvegicus; assay: Maximum achieved Nonfasted triglycerides reduction relative to vehicle treated control group; type: functional
[27] = Oral bioavailability; type: ADME, organism-based; details: eutheria, in vivo

| Compound | EC50 [1] | EC50 [8] | Max reduction [10] | Max reduction [12] | AUC ED50 [13] | Reduction [16] | ED50 [21] | ED50 [23] | Reduction [26] | other results |
| --- | --- | --- | --- | --- | --- | --- | --- | --- | --- | --- |
| CCCCC[C@H](O)/C=C/[C@@H]1[C@H]2C/C(=C\CCCC(=O)O)C[C@H]2C[C@H]1O [CARBACYCLIN] | 340 nM |  |  |  |  |  |  |  |  | EC50 [2]: 2410 nM |
| CCOC(Cc1ccc(OCCCN2c3ccccc3OCOc3ccccc32)cc1)C(=O)O (stereo unspecified) | 1200 nM | 1200 nM | 17% and 20% | 13% | 6.57 mg/kg |  |  |  |  | CL/F [3]: 13.7 mL/min/kg; ED50 [4]: 8.11 mg/kg; Cmax [5]: 730 ng/mL; bioavailability [6]: 63%; ED50 [7]: 18.3 mg/kg; Vd [9]: 0.76 L/kg; NE [11]: inactive |
| CCOC(Cc1ccc(OCCCN2c3ccccc3CCc3ccccc32)cc1)C(=O)O (stereo unspecified) |  | 760 nM |  |  |  |  |  |  |  |  |
| CCO[C@@H](Cc1ccc(OCCn2c3ccccc3c3ccccc32)cc1)C(=O)O | 360 nM | 170 nM | 58% and 55% | 52% | 0.4 mg/kg | 50% | 0.34 mg/kg | 0.06 mg/kg | 56% | Max reduction [14]: 85%; ED50 [15]: 0.52 mg/kg; half-life [17]: 22.2 h; CL/F [18]: 0.75 mL/min/kg; ED50 [19]: 0.34 mg/kg; AUC [20]: 144 µg·h/mL; Cmax [22]: 4430 ng/mL; ED50 [24]: 0.27 mg/kg; Vd [25]: 0.73 L/kg; bioavailability [27]: > 100% |
| CC(C)(Oc1ccc(CCNC(=O)c2ccc(Cl)cc2)cc1)C(=O)O [BEZAFIBRATE] |  | 73500 nM |  |  |  | 74% | 16.7 mg/kg | 16.5 mg/kg | 63% |  |
| CCOC(Cc1ccc(OCCn2c3ccccc3c3ccncc32)cc1)C(=O)O (stereo unspecified) | 670 nM | 91 nM |  |  |  |  |  |  |  |  |
